Patent publication US8883841B2, “Oncogenic ras-specific cytotoxic compound and methods of use thereof” (The Board of Regents of the University of Texas System, priority 2005, dated 2014)
pIC50: −log10 of the molar value.

How the values were obtained:
Sw620 = test: Cell viability, Sw620 colon cancer cells; assay type: cell-based, human; conditions: Sw620, Colon
Hey = test: Cell viability, Hey ovary cancer cells; assay type: cell-based
T29Kt1 cells = conditions: for IC50 in T29k cells: Table 1, value is the negative log10 of mol/L
H23 = test: Cell viability, H23 lung cancer cells; assay type: cell-based, human; conditions: H23, Lung
HCT-15 = test: NCI in-vitro testing, HCT-15 (Colon Cancer)
786-0 = test: NCI in-vitro testing, 786-0 (Renal Cancer)
KM12 = test: NCI in-vitro testing, KM12 (Colon Cancer); conditions: KM12
SNB-19 = test: NCI in-vitro testing, SNB-19 (CNS Cancer)
SK-MEL-28 = test: NCI in-vitro testing, SK-MEL-28 (Melanoma)
NCI/ADR-RES = test: NCI in-vitro testing, NCI/ADR-RES (Breast Cancer)
U251 = test: NCI in-vitro testing, U251 (CNS Cancer)
NCI-H460 = test: NCI in-vitro testing, NCI-H460 (Non-Small Cell Lung Cancer)
OVCAR-5 = test: NCI in-vitro testing, OVCAR-5 (Ovarian Cancer)
SN12C = test: NCI in-vitro testing, SN12C (Renal Cancer)
OVCAR-4 = test: NCI in-vitro testing, OVCAR-4 (Ovarian Cancer)
SF-268 = test: NCI in-vitro testing, SF-268 (CNS Cancer)
UACC-62 = test: NCI in-vitro testing, UACC-62 (Melanoma)

In the case of `O=Cc1cn(Cc2ccc(Cl)cc2)c2ccccc12` [Oncrasin K001, 1H-Indole-3-carboxaldehyde, 1-[(4-chlorophenyl)methyl]-(9CI)], the “IC50 (−LogM)” value (Sw620) was 5.4 −LogM, the “IC50 (−LogM)” value (Hey) was 4.6 −LogM and the “time course of toxicity in T29Kt1 cells” value (T29Kt1 cells; 33 μM) was “time-dependent toxicity”. The “concentration that effectively kills T29K cells” value (T29Kt1 cells; K-ras mutant) was 10 µM, the “IC50 in T29k cells” value (T29Kt1 cells) was 5.6 and the pIC50 (T29Kt1 cells; read-out: IC50, T29Kt1 cells, dose-dependent cytotoxicity) was 5.60. For the same compound, the “selectivity for T29Kt1 (T29K) cells in dose-response study” value (T29Kt1 cells; vs T29 and T29Ht1, 0.1 μM to 33 μM) was “highly selective” and the “IC50 (−LogM)” value (H23) was >4.5 −LogM.

In the case of `O=Cc1cn(Cc2cccc(Cl)c2)c2ccccc12` [Oncrasin K027, 1-(3-chlorobenzyl)-1H-indole-3-carbaldehyde], the TGI (HCT-15; HCT-15) was 2.58E−6 Molar, the “Percent Growth” value (HCT-15; HCT-15, Log10 Concentration −4.0 Molar) was −31% and the “Percent Growth” value (HCT-15; HCT-15, Log10 Concentration −5.0 Molar) was 21%. For the same compound, the “Percent Growth” value (HCT-15; HCT-15, Log10 Concentration −6.0 Molar) was 69%, the “Percent Growth” value (HCT-15; HCT-15, Log10 Concentration −7.0 Molar) was 90% and the “Percent Growth” value (HCT-15; HCT-15, Log10 Concentration −8.0 Molar) was 99%. The GI50 (HCT-15; Homo sapiens, HCT-15) was 0.0252 µM, the CC50 (HCT-15; Homo sapiens, HCT-15, read-out: LC50) was > 100 µM and the TGI (786-0; 785-0) was 2.19E−5 Molar. For the same compound, the “Percent Growth” value (786-0; 785-0, Log10 Concentration −4.0 Molar) was −52%, the “Percent Growth” value (786-0; 785-0, Log10 Concentration −5.0 Molar) was 27% and the “Percent Growth” value (786-0; 785-0, Log10 Concentration −6.0 Molar) was 70%. The “Percent Growth” value (786-0; 785-0, Log10 Concentration −7.0 Molar) was 88%, the “Percent Growth” value (786-0; 785-0, Log10 Concentration −8.0 Molar) was 69% and the GI50 (786-0; Homo sapiens, 786-0) was 3.4 µM. For the same compound, the CC50 (786-0; Homo sapiens, 786-0, read-out: LC50) was 84.7 µM, the TGI (KM12) was 4.15E−5 Molar and the “Percent Growth” value (KM12; Log10 Concentration −4.0 Molar) was −54%. The “Percent Growth” value (KM12; Log10 Concentration −5.0 Molar) was 87%, the “Percent Growth” value (KM12; Log10 Concentration −6.0 Molar) was 102% and the “Percent Growth” value (KM12; Log10 Concentration −7.0 Molar) was 113%. For the same compound, the “Percent Growth” value (KM12; Log10 Concentration −8.0 Molar) was 108%, the GI50 (SNB-19; Homo sapiens, SNB-19) was 17.6 µM and the CC50 (SNB-19; Homo sapiens, SNB-19, read-out: LC50) was > 100 µM. For the same compound, the TGI (SNB-19; SNB-19) was 5.89E−5 Molar, the “Percent Growth” value (SNB-19; SNB-19, Log10 Concentration −4.0 Molar) was −24% and the “Percent Growth” value (SNB-19; SNB-19, Log10 Concentration −5.0 Molar) was 74%. The “Percent Growth” value (SNB-19; SNB-19, Log10 Concentration −6.0 Molar) was 97%, the “Percent Growth” value (SNB-19; SNB-19, Log10 Concentration −7.0 Molar) was 97% and the “Percent Growth” value (SNB-19; SNB-19, Log10 Concentration −8.0 Molar) was 103%. For the same compound, the GI50 (SK-MEL-28; Homo sapiens, SK-MEL-28) was 18 µM, the CC50 (SK-MEL-28; Homo sapiens, SK-MEL-28, read-out: LC50) was > 100 µM and the TGI (SK-MEL-28; SK-MEL-28) was 4.44E−6 Molar. For the same compound, the “Percent Growth” value (SK-MEL-28; SK-MEL-28, Log10 Concentration −4.0 Molar) was −45%, the “Percent Growth” value (SK-MEL-28; SK-MEL-28, Log10 Concentration −5.0 Molar) was 82% and the “Percent Growth” value (SK-MEL-28; SK-MEL-28, Log10 Concentration −6.0 Molar) was 93%. For the same compound, the “Percent Growth” value (SK-MEL-28; SK-MEL-28, Log10 Concentration −7.0 Molar) was 93%, the “Percent Growth” value (SK-MEL-28; SK-MEL-28, Log10 Concentration −8.0 Molar) was 83% and the TGI (NCI/ADR-RES) was 3.32E−6 Molar. For the same compound, the GI50 (NCI/ADR-RES; Homo sapiens) was 9.22 µM, the CC50 (NCI/ADR-RES; Homo sapiens, read-out: LC50) was > 100 µM and the “Percent Growth” value (NCI/ADR-RES; Log10 Concentration −4.0 Molar) was −45%. The “Percent Growth” value (NCI/ADR-RES; Log10 Concentration −5.0 Molar) was 48%, the “Percent Growth” value (NCI/ADR-RES; Log10 Concentration −6.0 Molar) was 85% and the “Percent Growth” value (NCI/ADR-RES; Log10 Concentration −7.0 Molar) was 94%. For the same compound, the “Percent Growth” value (NCI/ADR-RES; Log10 Concentration −8.0 Molar) was 103%, the GI50 (U251; Homo sapiens, U-251) was 2.46 µM and the CC50 (U251; Homo sapiens, U-251, read-out: LC50) was > 100 µM. The TGI (U251; U251) was 2.53E−5 Molar, the “Percent Growth” value (U251; U251, Log10 Concentration −4.0 Molar) was −35% and the “Percent Growth” value (U251; U251, Log10 Concentration −5.0 Molar) was 25%. For the same compound, the “Percent Growth” value (U251; U251, Log10 Concentration −6.0 Molar) was 56%, the “Percent Growth” value (U251; U251, Log10 Concentration −7.0 Molar) was 84% and the “Percent Growth” value (U251; U251, Log10 Concentration −8.0 Molar) was 93%. The TGI (NCI-H460) was 3.79E−5 Molar, the GI50 (NCI-H460; Homo sapiens, NCI-H460) was 0.0888 µM and the CC50 (NCI-H460; Homo sapiens, NCI-H460, read-out: LC50) was > 100 µM. For the same compound, the “Percent Growth” value (NCI-H460; Log10 Concentration −4.0 Molar) was −9%, the “Percent Growth” value (NCI-H460; Log10 Concentration −5.0 Molar) was 13% and the “Percent Growth” value (NCI-H460; Log10 Concentration −6.0 Molar) was 20%. For the same compound, the “Percent Growth” value (NCI-H460; Log10 Concentration −7.0 Molar) was 48%, the “Percent Growth” value (NCI-H460; Log10 Concentration −8.0 Molar) was 79% and the GI50 (OVCAR-5; Homo sapiens, OVCAR-5) was < 0.01 µM. The CC50 (OVCAR-5; Homo sapiens, OVCAR-5, read-out: LC50) was > 100 µM, the TGI (OVCAR-5; OVCAR-5) was 3.72E−7 Molar and the “Percent Growth” value (OVCAR-5; OVCAR-5, Log10 Concentration −4.0 Molar) was −50%. For the same compound, the “Percent Growth” value (OVCAR-5; OVCAR-5, Log10 Concentration −5.0 Molar) was −23%, the “Percent Growth” value (OVCAR-5; OVCAR-5, Log10 Concentration −6.0 Molar) was −7% and the “Percent Growth” value (OVCAR-5; OVCAR-5, Log10 Concentration −7.0 Molar) was 10%. For the same compound, the “Percent Growth” value (OVCAR-5; OVCAR-5, Log10 Concentration −8.0 Molar) was 43%, the “IC50 in T29k cells” value (T29Kt1 cells) was 6.43 and the TGI (SN12C) was 1.94E−5 Molar. The GI50 (SN12C; Homo sapiens) was 3.56 µM, the CC50 (SN12C; Homo sapiens, read-out: LC50) was 67.2 µM and the “Percent Growth” value (SN12C; Log10 Concentration −4.0 Molar) was −66%. The “Percent Growth” value (SN12C; Log10 Concentration −5.0 Molar) was 27%, the “Percent Growth” value (SN12C; Log10 Concentration −6.0 Molar) was 79% and the “Percent Growth” value (SN12C; Log10 Concentration −7.0 Molar) was 93%. For the same compound, the “Percent Growth” value (SN12C; Log10 Concentration −8.0 Molar) was 97%, the GI50 (OVCAR-4; Homo sapiens, OVCAR-4) was 0.34 µM and the CC50 (OVCAR-4; Homo sapiens, OVCAR-4, read-out: LC50) was > 100 µM. The TGI (OVCAR-4; OVCAR-4) was 1.80E−5 Molar, the “Percent Growth” value (OVCAR-4; OVCAR-4, Log10 Concentration −4.0 Molar) was −29% and the “Percent Growth” value (OVCAR-4; OVCAR-4, Log10 Concentration −5.0 Molar) was 10%. The “Percent Growth” value (OVCAR-4; OVCAR-4, Log10 Concentration −6.0 Molar) was 31%, the “Percent Growth” value (OVCAR-4; OVCAR-4, Log10 Concentration −7.0 Molar) was 71% and the “Percent Growth” value (OVCAR-4; OVCAR-4, Log10 Concentration −8.0 Molar) was 94%. For the same compound, the GI50 (SF-268; Homo sapiens, SF-268) was 1.24 µM, the CC50 (SF-268; Homo sapiens, SF-268, read-out: LC50) was > 100 µM and the TGI (SF-268; SF-268) was 4.58E−5 Molar. For the same compound, the “Percent Growth” value (SF-268; SF-268, Log10 Concentration −4.0 Molar) was −30%, the “Percent Growth” value (SF-268; SF-268, Log10 Concentration −5.0 Molar) was 58% and the “Percent Growth” value (SF-268; SF-268, Log10 Concentration −6.0 Molar) was 94%. The “Percent Growth” value (SF-268; SF-268, Log10 Concentration −7.0 Molar) was 93%, the “Percent Growth” value (SF-268; SF-268, Log10 Concentration −8.0 Molar) was 106% and the GI50 (UACC-62; Homo sapiens, UACC-62) was 0.0451 µM. The CC50 (UACC-62; Homo sapiens, UACC-62, read-out: LC50) was 11.4 µM, the TGI (UACC-62; UACC-62) was 8.97E−7 Molar and the “Percent Growth” value (UACC-62; UACC-62, Log10 Concentration −4.0 Molar) was −94%. The “Percent Growth” value (UACC-62; UACC-62, Log10 Concentration −5.0 Molar) was −47%, the “Percent Growth” value (UACC-62; UACC-62, Log10 Concentration −6.0 Molar) was −2% and the “Percent Growth” value (UACC-62; UACC-62, Log10 Concentration −7.0 Molar) was 35%. For the same compound, the “Percent Growth” value (UACC-62; UACC-62, Log10 Concentration −8.0 Molar) was 79%.
